Laboratory results taken from patent US10336792B2, “Antimicrobial peptide dendrimers” (priority 2014, dated 2019).
≈ marks a conversion by molar mass, not a printed value. Like-named read-outs stand apart in the source and are kept apart here. Positions of bridges follow the written chain, without caps; N, C: chain ends. Non-standard residues stand in square brackets, D forms with d. Residues, ends and D or L forms follow the SMILES beside them. Groups on a side chain read outwards from the residue. Chains are numbered I, II in the order given. *: point of attachment. LeuLys(Leu) = CC(C)C[C@H](N)C(=O)NCCCC[C@H](NC(=O)[C@@H](N)CC(C)C)C(=O)*; X2 = NCCCC[C@H](N)C(=O)NCCCC[C@H](NC(=O)[C@@H](N)CCCCN)C(=O)*; X1 = CCCCCCCCCCCCCCCCCCCCCCCC(=O)*; Decanoyl = CCCCCCCCCC(=O)*; Dap = NC[C@H](N)C(=O)O

What was measured:
Assay type in all cases: cell-based
[1] = test system: Pseudomonas aeruginosa (strain PA01); assay: microbe, parasite or virus in culture; details: strain
Outline: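 P. aeruginosa PAO1 grown overnight in LB, diluted to OD600 0.001 and mixed with ⅔-step peptide dilutions, then incubated at 37 °C for 18–24 h. After MTT staining, the lowest concentration with no visible growth was read by eye as the MIC.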

[2] = test system: Bacillus subtilis (strain BR151)
Method: (§1) Antimicrobial activity was assayed against Bacillus subtilis (strain BR151), Escherichia coli (strain DH5α) and Pseudomonas aeruginosa (strain PA01). Microdilution broth method was used to determine the minimal inhibitory concentration (MIC). A colony of bacteria was grown in LB-medium overnight at 37° C. The concentration was quantified by measuring absorbance at 600 nm and diluted to OD600=0.1 (1×10^8 CFU/mL). The samples were prepared as stock solutions of 1 mg mL^−1 in H2O and diluted serially by ⅔ in nutrient LB in a 96-well microtiterplate (Cornstar, polypropylene, untreated). The sample solutions (50 μL) were mixed with the diluted bacterial suspension with an OD600 nm of 0.001 (50 μL). […] The plates were incubated at 37° C. until satisfactory growth (18-24 h). For each test, two columns of the plate were kept for sterility control (SC, broth only) and growth control (GC, broth with bacterial inoculums, no antibiotics). 10 μL of a solution of MTT (0.1% in H2O) was added to each well. The minimal inhibitory concentration (MIC) was defined as the lowest concentration of the antimicrobial substance (peptide dendrimer) that inhibited visible growth of the tested bacteria (yellow) with the unaided eye. For microbiological study the linear peptide LysTyrLysLysAlaLeuLysLysLeuAlaLysLeuLeu (SEQ ID No. 1) was used as reference.
(§2) The AMPD library was tested for their antimicrobial activity against B. subtilis BR151, a Gram-positive bacterium and E. coli DH5α, another Gram-negative bacterium, to cover a broader spectrum of different bacteria. […] Therefore no explicit SAR can be established, but clearly the hydrophobic amino acids Ala and Tyr seem to have a significant influence in reducing activity.

[3] = test system: Escherichia coli (strain DH5α)
Method: as §1, §2

Molecule	MIC P. aeruginosa PAO1 [1] [µg/mL]	MIC B. subtilis BR151 ([2]; strain BR151) [µg/mL]	MIC E. coli DH5α ([3]; DH5α) [µg/mL]	MIC B. subtilis BR151 ([2]; LB medium) [µg/mL]	MIC E. coli DH5α ([3]; LB medium) [µg/mL]
CC(C)C[C@H](NC(=O)[C@H](CCCNC(=N)N)NC(=O)[C@H](CNC(=O)[C@H](CC(C)C)NC(=O)[C@H](CCCNC(=N)N)NC(=O)[C@H](CNC(=O)[C@H](CC(C)C)NC(=O)[C@H](CCCNC(=N)N)NC(=O)[C@H](CNC(=O)[C@H](CC(C)C)NC(=O)[C@@H](N)CCCNC(=N)N)NC(=O)[C@H](CC(C)C)NC(=O)[C@@H](N)CCCNC(=N)N)NC(=O)[C@H](CC(C)C)NC(=O)[C@H](CCCNC(=N)N)NC(=O)[C@H](CNC(=O)[C@H](CC(C)C)NC(=O)[C@@H](N)CCCNC(=N)N)NC(=O)[C@H](CC(C)C)NC(=O)[C@@H](N)CCCNC(=N)N)NC(=O)[C@H](CC(C)C)NC(=O)[C@H](CCCNC(=N)N)NC(=O)[C@H](CNC(=O)[C@H](CC(C)C)NC(=O)[C@H](CCCNC(=N)N)NC(=O)[C@H](CNC(=O)[C@H](CC(C)C)NC(=O)[C@@H](N)CCCNC(=N)N)NC(=O)[C@H](CC(C)C)NC(=O)[C@@H](N)CCCNC(=N)N)NC(=O)[C@H](CC(C)C)NC(=O)[C@H](CCCNC(=N)N)NC(=O)[C@H](CNC(=O)[C@H](CC(C)C)NC(=O)[C@@H](N)CCCNC(=N)N)NC(=O)[C@H](CC(C)C)NC(=O)[C@@H](N)CCCNC(=N)N)C(N)=O [MSt-137, (RL)8(BRL)4(BRL)2(BRL)] (I: H-RL[Dap]([Leu-Arg])RL[Dap]RL[Dap]RL-NH2 / II: H-RL[Dap]([Leu-Arg])RL[Dap]RL / III: H-RL[Dap]([Leu-Arg])RL / IV: H-RL[Dap]([Leu-Arg])RL; amide I:6-IV:C, I:9-II:C, II:6-III:C)	7 (≈ 1.5 µM)	4 (≈ 0.858 µM)	3 (≈ 0.644 µM)		
CCCCCCCCCC(=O)NCCCC[C@H](NC(=O)[C@H](CC(C)C)NC(=O)[C@H](CCCCN)NC(=O)[C@H](CCCCNC(=O)[C@H](CC(C)C)NC(=O)[C@H](CCCCN)NC(=O)[C@H](CCCCNC(=O)[C@H](CC(C)C)NC(=O)[C@@H](N)CCCCN)NC(=O)[C@H](CC(C)C)NC(=O)[C@@H](N)CCCCN)NC(=O)[C@H](CC(C)C)NC(=O)[C@H](CCCCN)NC(=O)[C@H](CCCCNC(=O)[C@H](CC(C)C)NC(=O)[C@@H](N)CCCCN)NC(=O)[C@H](CC(C)C)NC(=O)[C@@H](N)CCCCN)C(N)=O [MSt-262, (KL)4(KKL)2(KKLKC10)] (I: H-KLK([Leu-Lys])KLKKLK(Decanoyl)-NH2 / II: H-KLK([Leu-Lys])KL; amide I:6-II:C)	1 (≈ 0.421 µM)	2 (≈ 0.843 µM)	1 (≈ 0.421 µM)		
CC(C)C[C@H](NC(=O)[C@H](CCCCNC(=O)[C@@H](N)CC(C)C)NC(=O)[C@@H](N)CC(C)C)C(=O)NCCCC[C@H](NC(=O)[C@H](CC(C)C)NC(=O)[C@H](CCCCNC(=O)[C@@H](N)CC(C)C)NC(=O)[C@@H](N)CC(C)C)C(=O)N[C@@H](CCCCN)C(=O)NCCCC[C@H](NC(=O)[C@H](CCCCN)NC(=O)[C@H](CCCCNC(=O)[C@H](CC(C)C)NC(=O)[C@H](CCCCNC(=O)[C@@H](N)CC(C)C)NC(=O)[C@@H](N)CC(C)C)NC(=O)[C@H](CC(C)C)NC(=O)[C@H](CCCCNC(=O)[C@@H](N)CC(C)C)NC(=O)[C@@H](N)CC(C)C)C(=O)N[C@@H](CCCCN)C(N)=O [MSt-149, (L)8(KL)4(KK)2(KK)NH2] (I: H-LK(Leu)LK([Leu-LeuLys(Leu)])KKK-NH2 / II: H-LK(Leu)LK([Leu-LeuLys(Leu)])K; amide I:6-II:C; N-terminus assumed)		8 (≈ 3.01 µM)	>90		
CC(C)C[C@H](NC(=O)[C@H](CCCCN)NC(=O)[C@H](CNC(=O)[C@H](CC(C)C)NC(=O)[C@H](CCCCN)NC(=O)[C@H](CNC(=O)[C@H](CC(C)C)NC(=O)[C@H](CCCCN)NC(=O)[C@H](CNC(=O)[C@H](CC(C)C)NC(=O)[C@@H](N)CCCCN)NC(=O)[C@H](CC(C)C)NC(=O)[C@@H](N)CCCCN)NC(=O)[C@H](CC(C)C)NC(=O)[C@H](CCCCN)NC(=O)[C@H](CNC(=O)[C@H](CC(C)C)NC(=O)[C@@H](N)CCCCN)NC(=O)[C@H](CC(C)C)NC(=O)[C@@H](N)CCCCN)NC(=O)[C@H](CC(C)C)NC(=O)[C@H](CCCCN)NC(=O)[C@H](CNC(=O)[C@H](CC(C)C)NC(=O)[C@H](CCCCN)NC(=O)[C@H](CNC(=O)[C@H](CC(C)C)NC(=O)[C@@H](N)CCCCN)NC(=O)[C@H](CC(C)C)NC(=O)[C@@H](N)CCCCN)NC(=O)[C@H](CC(C)C)NC(=O)[C@H](CCCCN)NC(=O)[C@H](CNC(=O)[C@H](CC(C)C)NC(=O)[C@@H](N)CCCCN)NC(=O)[C@H](CC(C)C)NC(=O)[C@@H](N)CCCCN)C(N)=O [MSt-136, (KL)8(BKL)4(BKL)2(BKL)] (I: H-KL[Dap]([Leu-Lys])KL[Dap]KL[Dap]KL-NH2 / II: H-KL[Dap]([Leu-Lys])KL[Dap]KL / III: H-KL[Dap]([Leu-Lys])KL / IV: H-KL[Dap]([Leu-Lys])KL; amide I:6-IV:C, I:9-II:C, II:6-III:C)	2 (≈ 0.472 µM)	2 (≈ 0.472 µM)	1 (≈ 0.236 µM)		
CC(C)C[C@H](NC(=O)[C@H](CC(C)C)NC(=O)[C@H](CCCCNC(=O)[C@H](CC(C)C)NC(=O)[C@H](CC(C)C)NC(=O)[C@H](CCCCNC(=O)[C@H](CCCCN)NC(=O)[C@H](CCCCN)NC(=O)[C@H](CCCCNC(=O)[C@H](CCCCN)NC(=O)[C@@H](N)CCCCN)NC(=O)[C@H](CCCCN)NC(=O)[C@@H](N)CCCCN)NC(=O)[C@H](CCCCN)NC(=O)[C@H](CCCCN)NC(=O)[C@H](CCCCNC(=O)[C@H](CCCCN)NC(=O)[C@@H](N)CCCCN)NC(=O)[C@H](CCCCN)NC(=O)[C@@H](N)CCCCN)NC(=O)[C@H](CC(C)C)NC(=O)[C@H](CC(C)C)NC(=O)[C@H](CCCCNC(=O)[C@H](CCCCN)NC(=O)[C@H](CCCCN)NC(=O)[C@H](CCCCNC(=O)[C@H](CCCCN)NC(=O)[C@@H](N)CCCCN)NC(=O)[C@H](CCCCN)NC(=O)[C@@H](N)CCCCN)NC(=O)[C@H](CCCCN)NC(=O)[C@H](CCCCN)NC(=O)[C@H](CCCCNC(=O)[C@H](CCCCN)NC(=O)[C@@H](N)CCCCN)NC(=O)[C@H](CCCCN)NC(=O)[C@@H](N)CCCCN)C(N)=O [MSt-140, (KK)8(KKK)4(KLL)2(KLL)] (I: H-KKK([Lys-Lys])KKKLLKLL-NH2 / II: H-KKK([Lys-Lys])KKKLL / III: H-KKK([Lys-Lys])KK / IV: H-KKK([Lys-Lys])KK; amide I:6-IV:C, I:9-II:C, II:6-III:C)		6 (≈ 1.28 µM)	>95		
CCCCCCCCCCCCCCCCCCCCCCCC(=O)NCCCC[C@H](NC(=O)[C@H](CC(C)C)NC(=O)[C@H](CCCCN)NC(=O)[C@H](CCCCNC(=O)[C@H](CC(C)C)NC(=O)[C@H](CCCCN)NC(=O)[C@H](CCCCNC(=O)[C@H](CC(C)C)NC(=O)[C@@H](N)CCCCN)NC(=O)[C@H](CC(C)C)NC(=O)[C@@H](N)CCCCN)NC(=O)[C@H](CC(C)C)NC(=O)[C@H](CCCCN)NC(=O)[C@H](CCCCNC(=O)[C@H](CC(C)C)NC(=O)[C@@H](N)CCCCN)NC(=O)[C@H](CC(C)C)NC(=O)[C@@H](N)CCCCN)C(N)=O [MSt-287, (KL)4(KKL)2(KKLKC24)] (I: H-KLK([Leu-Lys])KLKKLK(X1)-NH2 / II: H-KLK([Leu-Lys])KL; amide I:6-II:C)		26 (≈ 10.1 µM)	13 (≈ 5.06 µM)		
(KL)32(KKL)16(KKLCxKL)8(KKL)4(KKL)2KKL [CCS-15]				26	8
CC(C)C[C@H](NC(=O)[C@H](CCCCN)NC(=O)[C@H](CC(C)C)NC(=O)[C@H](CCCCN)NC(=O)[C@H](CC(C)C)NC(=O)[C@H](CCCCN)NC(=O)[C@H](CC(C)C)NC(=O)[C@H](CCCCN)NC(=O)[C@H](CC(C)C)NC(=O)[C@H](CCCCN)NC(=O)[C@H](CC(C)C)NC(=O)[C@H](CCCCN)NC(=O)[C@H](CC(C)C)NC(=O)[C@@H](N)CCCCN)C(N)=O [MSt-117, KLKLKLKLKLKLKL, reference compound] (H-KLKLKLKLKLKLKL-NH2)		14 (≈ 8.2 µM)	13 (≈ 7.62 µM)		
CC(C)C[C@H](NC(=O)[C@H](CCCCNC(=O)[C@H](CC(C)C)NC(=O)[C@H](CCCCNC(=O)[C@H](CCCCN)NC(=O)[C@H](CCCCNC(=O)[C@@H](N)CCCCN)NC(=O)[C@@H](N)CCCCN)NC(=O)[C@H](CCCCN)NC(=O)[C@H](CCCCNC(=O)[C@@H](N)CCCCN)NC(=O)[C@@H](N)CCCCN)NC(=O)[C@H](CC(C)C)NC(=O)[C@H](CCCCNC(=O)[C@H](CCCCN)NC(=O)[C@H](CCCCNC(=O)[C@@H](N)CCCCN)NC(=O)[C@@H](N)CCCCN)NC(=O)[C@H](CCCCN)NC(=O)[C@H](CCCCNC(=O)[C@@H](N)CCCCN)NC(=O)[C@@H](N)CCCCN)C(N)=O [MSt-148, (K)8(KK)4(KL)2(KL)NH2] (I: H-KK(Lys)KK([Lys-X2])LKL-NH2 / II: H-KK(Lys)KK([Lys-X2])L; amide I:6-II:C; N-terminus assumed)		12 (≈ 4.3 µM)	>90		
